From patent publication US9226916B2, “Pyrrolidine derivatives” (HOFFMANN-LA ROCHE INC., priority 2009, dated 2016)

Target: T1, recombinant human NK3 receptor (Homo sapiens, UniProt P29371)
T1 construct: expressed in transfected cells; host or cells: HEK293 cells, transient expression; membranes
T1 sequence (P29371 1-465): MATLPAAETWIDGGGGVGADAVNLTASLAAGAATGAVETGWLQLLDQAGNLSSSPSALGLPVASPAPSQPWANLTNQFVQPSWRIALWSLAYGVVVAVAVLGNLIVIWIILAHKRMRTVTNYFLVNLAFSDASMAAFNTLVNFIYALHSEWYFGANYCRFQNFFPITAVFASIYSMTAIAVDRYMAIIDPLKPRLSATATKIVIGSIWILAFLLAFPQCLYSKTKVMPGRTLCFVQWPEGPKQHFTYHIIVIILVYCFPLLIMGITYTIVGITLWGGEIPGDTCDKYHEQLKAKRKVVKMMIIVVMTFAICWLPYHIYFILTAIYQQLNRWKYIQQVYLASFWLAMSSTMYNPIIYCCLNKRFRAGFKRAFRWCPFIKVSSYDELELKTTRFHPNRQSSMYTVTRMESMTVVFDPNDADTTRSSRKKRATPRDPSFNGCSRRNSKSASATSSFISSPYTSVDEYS
Experiment: [3H]SR142801 competition binding assay
Conditions: not given

SMILES	Ki
CN(C(=O)Oc1ccc(F)cc1)[C@@H]1CN(C(=O)[C@H]2CC[C@@H](O)CC2)C[C@H]1c1ccc(Cl)c(Cl)c1 [Example 60, [(3S,4R)-4-(3,4-Dichloro-phenyl)-1-(cis-4-hydroxy-cyclohexanecarbonyl)-pyrrolidin-3-yl]-methyl-carbamic acid 4-fluoro-phenyl ester]	1.7 nM
CN(C(=O)Oc1ccc(Cl)cc1)[C@@H]1CN(C(=O)C2CCN(C(=O)C3(C)CC3)CC2)C[C@H]1c1ccc(Cl)c(Cl)c1 [Example 19, {(3S,4R)-4-(3,4-Dichloro-phenyl)-1-[1-(1-methyl-cyclopropanecarbonyl)-piperidine-4-carbonyl]-pyrrolidin-3-yl}-methyl-carbamic acid 4-chlorophenyl ester]	0.2 nM
CN(C(=O)Oc1ccc(Cl)cc1)[C@H]1CN(C(=O)C2CCN(CC3CC3)CC2)C[C@@H]1c1ccc(Cl)c(Cl)c1 (racemic) [Example 10, rac-[(3R,4S)-1-(1-Cyclopropylmethyl-piperidine-4-carbonyl)-4-(3,4-dichloro-phenyl)-pyrrolidin-3-yl]-methyl-carbamic acid 4-chloro-phenyl ester]	1.5 nM
CN(C(=O)Oc1ccc(F)cc1)[C@H]1CN(C(=O)[C@H]2CC[C@@](C)(O)CC2)C[C@@H]1c1ccc(Cl)c(Cl)c1 (racemic) [Example 53, rac-[(3R,4S)-4-(3,4-Dichloro-phenyl)-1-(cis-4-hydroxy-4-methyl-cyclohexanecarbonyl)-pyrrolidin-3-yl]-methyl-carbamic acid 4-fluoro-phenyl ester]	4.7 nM
CN(C(=O)Oc1ccc(F)cc1)[C@H]1CN(C(=O)C2CCN(C(=O)C3(C)CC3)CC2)C[C@@H]1c1ccc(Cl)c(Cl)c1 [Example 5, {(3R,4S)-4-(3,4-Dichloro-phenyl)-1-[1-(1-methyl-cyclopropanecarbonyl)-piperidine-4-carbonyl]-pyrrolidin-3-yl}-methyl-carbamic acid 4-fluoro-phenyl ester]	56.2 nM
CN(C(=O)Oc1ccc(F)cc1)[C@@H]1CN(C(=O)C2CCN(C(=O)C3CC(F)(F)C3)CC2)C[C@H]1c1ccc(Cl)cc1 [Example 250, {(3S,4R)-4-(4-Chloro-phenyl)-1-[1-(3,3-difluoro-cyclobutanecarbonyl)-piperidine-4-carbonyl]-pyrrolidin-3-yl}-methyl-carbamic acid 4-fluoro-phenyl Ester]	1.4 nM
CN(C(=O)Oc1ccc(F)cc1)[C@@H]1CN(C(=O)C2CCN(c3cccc(C#N)n3)CC2)C[C@H]1c1ccc(Cl)cc1 [Example 189, [(3S,4R)-4-(4-Chloro-phenyl)-1-(6′-cyano-3,4,5,6-tetrahydro-2H-[1,2′]bipyridinyl-4-carbonyl)-pyrrolidin-3-yl]-methyl-carbamic acid 4-fluoro-phenyl ester]	3.5 nM
CN(C(=O)Oc1cccc(Cl)n1)[C@@H]1CN(C(=O)C2CCN(C(=O)C3(C)CC3)CC2)C[C@H]1c1ccc(Cl)c(Cl)c1 [Example 300, {(3S,4R)-4-(3,4-Dichloro-phenyl)-1-[1-(1-methyl-cyclopropanecarbonyl)-piperidine-4-carbonyl]-pyrrolidin-3-yl}-methyl-carbamic acid 6-chloro-pyridin-2-yl ester]	2.6 nM
COC1CC(C(=O)N2CCC(C(=O)N3C[C@@H](N(C)C(=O)Oc4ccc(F)cc4)[C@H](c4ccc(Cl)c(Cl)c4)C3)CC2)C1 (stereo partly drawn) [Example 269, {(3S,4R)-4-(3,4-Dichloro-phenyl)-1-[1-(3-methoxy-cyclobutanecarbonyl)-piperidine-4-carbonyl]-pyrrolidin-3-yl}-methyl-carbamic acid 4-fluoro-phenyl ester]	0.5 nM
CN(C(=O)Oc1ccc(F)cc1)[C@@H]1CN(C(=O)C2CCN(C(=O)OC(C)(C)C)CC2)C[C@H]1c1ccc(Cl)cc1 [Example 133, 4-{(3R,4S)-3-(4-Chloro-phenyl)-4-[(4-fluoro-phenoxycarbonyl)-methyl-amino]-pyrrolidine-1-carbonyl}-piperidine-1-carboxylic acid tert-butyl ester]	3 nM
CN(C(=O)Oc1ccc(F)cc1)[C@@H]1CN(C(=O)C2CCN(C(=O)C3(C#N)CC3)CC2)C[C@H]1c1ccc(Cl)c(Cl)c1 [Example 272, [(3S,4R)-1-[1-(1-Cyano-cyclopropanecarbonyl)-piperidine-4-carbonyl]-4-(3,4-dichloro-phenyl)-pyrrolidin-3-yl]-methyl-carbamic acid 4-fluoro-phenyl ester]	0.8 nM
CN(C(=O)Oc1ccc(F)cc1)[C@@H]1CN(C(=O)C2CCN(C(=O)C3CC3(F)F)CC2)C[C@H]1c1ccc(Cl)cc1 (stereo partly drawn) [Example 256, {(3S,4R)-4-(4-Chloro-phenyl)-1-[1-(2,2-difluoro-cyclopropanecarbonyl)-piperidine-4-carbonyl]-pyrrolidin-3-yl}-methyl-carbamic acid 4-fluoro-phenyl ester]	2.6 nM
CN(C(=O)Oc1ccc(F)cc1)[C@H]1CN(C(=O)C2CCN(C3CCOCC3)CC2)C[C@@H]1c1ccc(Cl)c(Cl)c1 (racemic) [Example 77, rac-{(3R,4S)-4-(3,4-Dichloro-phenyl)-1-[1-(tetrahydro-pyran-4-yl)-piperidine-4-carbonyl]-pyrrolidin-3-yl}-methyl-carbamic acid 4-fluoro-phenyl ester]	1.5 nM
CN(C(=O)Oc1ccc(Cl)cn1)[C@@H]1CN(C(=O)C2CCN(c3ccc(C#N)cn3)CC2)C[C@H]1c1ccc(Cl)cc1 [Example 244, [(3S,4R)-4-(4-Chloro-phenyl)-1-(5′-cyano-3,4,5,6-tetrahydro-2H-[1,2′]bipyridinyl-4-carbonyl)-pyrrolidin-3-yl]-methyl-carbamic acid 5-chloro-pyridin-2-yl ester]	20.9 nM
CN(C(=O)Oc1ccc(F)cc1)[C@@H]1CN(C(=O)C2CCOCC2)C[C@H]1c1ccc(Cl)c(Cl)c1 [Example 51, [(3S,4R)-4-(3,4-Dichloro-phenyl)-1-(tetrahydro-pyran-4-carbonyl)-pyrrolidin-3-yl]-methyl-carbamic acid 4-fluoro-phenyl ester]	1.8 nM

Same assay, conditions: hNK-3 receptor affinity; membranes from HEK293 cells transiently expressing recombinant human NK3 receptor; [3H]SR142801; Cheng-Prussoff; read-out: Data Ki

Ki	SMILES
12.5 nM	CN(C(=O)OCC(F)(F)F)[C@@H]1CN(C(=O)C2CCN(c3ccc(C#N)cn3)CC2)C[C@H]1c1ccc(Cl)cc1 [Example 158, [(3S,4R)-4-(4-Chloro-phenyl)-1-(5′-cyano-3,4,5,6-tetrahydro-2H-[1,2′]bipyridinyl-4-carbonyl)-pyrrolidin-3-yl]-methyl-carbamic acid 2,2,2-trifluoro-ethyl ester]
81.1 nM	CN(C(=O)OCCC1CC1)[C@H]1CN(C(=O)C2CCN(C(=O)C3(C)CC3)CC2)C[C@@H]1c1ccc(Cl)c(Cl)c1 [Example 35, {(3R,4S)-4-(3,4-Dichloro-phenyl)-1-[1-(1-methyl-cyclopropanecarbonyl)-piperidine-4-arbonyl]-pyrrolidin-3-yl}-methyl-carbamic acid 2-cyclopropyl-ethyl ester]
81.4 nM	CN(C(=O)OCC(F)(F)F)[C@@H]1CN(C(=O)C2CCN(C(=O)C3(C)CC3)CC2)C[C@H]1c1ccc(Cl)cc1 [Example 164, {(3S,4R)-4-(4-Chloro-phenyl)-1-[1-(1-methyl-cyclopropanecarbonyl)-piperidine-4-carbonyl]-pyrrolidin-3-yl}-methyl-carbamic acid 2,2,2-trifluoro ethyl ester]
